According to patent publication US4633014A, “Substituted 3-hydrazinopropionates” (priority 1983, dated 1986):

Columns and labels:
white mice = assay: in vivo
Procedure: (§1) The study of the effect provided by the compounds according to the present invention on the cardio-vascular system was carried out in experiments on white mice. The specific (antiarrhythmic) effect and acute toxicity were studied.
(§2) The acute toxicity of the compounds according to the present invention was determined in experiments on white mice with a mass of 20-25 g. The test compounds were administered intraperitoneally in the form of aqueous solutions or suspensions in Twin-80. Observation over the test animals was effected for 10 days.

in vivo = conditions: mouse, in vivo, ip
Procedure: as §1, §2

[1] = test system: arrhythmia induced by an intravenous administration of calcium chloride; assay: Antiarrhythmic activity on a model of arrhythmia induced by intravenous calcium chloride (antagonism to calcium) in mice; assay type: in vivo; conditions: white mice, 20-40 minutes before
Procedure: The specific (antiarrhythmic) effect and acute toxicity were studied.
The antiarrhythmic activity of the compounds according to the present invention was studied on a model of arrhythmia induced by an intravenous administration of calcium chloride. In experiments on white mice of both sexes with a mass of 18-25 g narcotized by urethane (1,200 mg/kg intraperitoneally) ECG in the second standard lead was recorded. A 2% solution of calcium chloride was introduced into the tail vein at a constant rate (0.01 ml for 2 sec). The dose of calcium chloride causing arrhythmia and the dose causing the heart arrest were determined. In the test groups the test compounds were administered intraperitoneally 20-40 minutes before the beginning of the experiment.

SMILES | Relative toxisity to quinidine (white mice; mouse, in vivo, ip, 14400 min) | LD50 at 240 h (in vivo) [mg/kg] | Dose of calcium chloride causing arrythmia in animals under experiment ([1]; intraperitoneal dose 5 mg/kg) | Dose of calcium chloride causing death in animals under experiment ([1]; intraperitoneal dose 5 mg/kg) | Dose of calcium chloride causing arrythmia in animals under experiment ([1]; intraperitoneal dose 15 mg/kg) | Dose of calcium chloride causing death in animals under experiment ([1]; intraperitoneal dose 15 mg/kg) | Dose of calcium chloride causing arrythmia in animals under experiment ([1]; intraperitoneal dose 25 mg/kg) | Dose of calcium chloride causing death in animals under experiment ([1]; intraperitoneal dose 25 mg/kg) | Relative toxisity to quinidine (white mice; white mice, intraperitoneal, relative to quinidine)
COC(=O)CCN(C(N)=O)N(C)C [I-1, 3-(2,2-Dimethyl-1-carbamoylhydrazino)-methylpropionate] | 13,3 | 2080 | 118,5 mg/kg | 149,0 mg/kg | 124,4 mg/kg | 138,3 mg/kg | – | – | –
CNC(=O)N(CCC(=O)OC)N(C)C [I-2, 3-(2,2-Dimethyl-1-methylcarbamoylhydrazino)-methylpropionate] | 14,7 | 2300 | 112,0 mg/kg | 128,5 mg/kg | 124,5 mg/kg | 140,6 mg/kg | – | – | –
COC(=O)CCN(C(=O)Nc1ccccc1)N(C)C [I-3, 3-(2,2-dimethyl-1-phenylcarbamoylhydrazino)-methylpropionate] | 8,6 | 1350 | 86,7 mg/kg | 97,0 mg/kg | – | – | 124,7 mg/kg | 130,0 mg/kg | –
COC(=O)CCN(C(=O)Nc1ccc(NC(=O)N(CCC(=O)OC)N(C)C)cc1)N(C)C [I-4, 3-(2,2-dimethyl-1-p-/2-dimethylamino-2-methylpropionato-2'-yl-ureido-1-yl/anilinocarbanylhydrazino)-methylpropionate] | 51,3 | 8000 | 86,0 mg/kg | 110,0 mg/kg | – | – | 103,7 mg/kg | 115,0 mg/kg | –
CNC(=S)N(CCC(=O)OC)N(C)C [I-5, 3-(2,2-dimethyl-1-methylthiocarbamoylhydrazino)methylpropionate] | 25,3 | 3950 | 87,5 mg/kg | 100,5 mg/kg | – | – | 127,3 mg/kg | 131,4 mg/kg | –
C=CCNC(=S)N(CCC(=O)OC)N(C)C [I-6, 3-(2,2-dimethyl-1-allylthiocarbamoylhydrazino)methylpropionate] | 20,5 | 3200 | 97,9 mg/kg | 110,4 mg/kg | – | – | 100,9 mg/kg | 113,7 mg/kg | –
COC(=O)CCN(C(=S)Nc1ccccc1)N(C)C [I-7, 3-(2,2-dimethyl-1-phenylthiocarbamoylhydrazino)methylpropionate] | 13,4 | 2100 | 132 mg/kg | 135,6 mg/kg | 107,5 mg/kg | 138,0 mg/kg | 90,0 mg/kg | 113,0 mg/kg | –
CCOC(=O)CCN(C(=O)NC)N(C)C [I-8, 3-(2,2-dimethyl-1-methylcarbamoylhydrazino)-ethylpropionate] | 11,9 | 1870 | 99,4 mg/kg | 112,0 mg/kg | – | – | 123,2 mg/kg | 124,6 mg/kg | –
C=CCNC(=S)N(CCC(=O)OCC)N(C)C [I-9, 3-(2,2-dimethyl-1-allylthiocarbamoylhydrazino)ethylpropionate] | 11,4 | 1780 | 91,8 mg/kg | 107 mg/kg | – | – | 104,8 mg/kg | 116,5 mg/kg | –
CCOC(=O)CCN(C(=S)Nc1ccccc1)N(C)C [I-10, 3-(2,2-dimethyl-1-phenylthiocarbamoylhydrazino)ethylpropionate] | 11,5 | 1800 | 102,0 mg/kg | 108,8 mg/kg | 115,8 mg/kg | 125,7 mg/kg | – | – | –
COC(=O)C(C)CN(C(N)=O)N(C)C (centres unmarked) [I-11, 3-(2,2-dimethyl-1-carbamoylhydrazino)-2-methyl-methylpropionate] | 11,8 | 1850 | 100,3 mg/kg | 147 mg/kg | 130,7 mg/kg | 136,3 mg/kg | – | – | –
CNC(=O)N(CC(C)C(=O)OC)N(C)C (centres unmarked) [I-12, 3-(2,2-dimethyl-1-methylcarbamoylhydrazino)-2-methyl-methylpropionate] | 8,1 | 1270 | 106,0 mg/kg | 110,0 mg/kg | 128,3 mg/kg | 130,5 mg/kg | – | – | –
C=CCNC(=S)N(CC(C)C(=O)OC)N(C)C (centres unmarked) [I-13] | 7,8 | 1230 | 117,3 mg/kg | 136,5 mg/kg | 126,0 mg/kg | 138,0 mg/kg | – | – | –
COC(=O)C(C)CN(C(=S)Nc1ccccc1)N(C)C (centres unmarked) [I-14] | 12,5 | 1960 | 96,4 mg/kg | 114,1 mg/kg | 85 mg/kg | 101,0 mg/kg | – | – | –
CNC(=O)N(CCC(N)=O)N(C)C [I-15, 3-(2,2-dimethyl-1-methylcarbamoylhydrazino)-propionamide] | 23 | 3600 | 97,8 mg/kg | 109 mg/kg | 100,7 mg/kg | 108,5 mg/kg | – | – | –
CN(C)N(CCC(N)=O)C(=O)Nc1ccccc1 [I-16, 3-(2,2-dimethylamino-1-phenylcarbamoylhydrazino)propionamide] | – | 925 | 92,0 mg/kg | 115,3 mg/kg | 102,5 mg/kg | 125,0 mg/kg | – | – | 5,9
CNC(=S)N(CCC(N)=O)N(C)C [I-17] | 18,3 | 2850 | 87,5 mg/kg | 138 mg/kg | 102,0 mg/kg | 115 mg/kg | – | – | –
C=CCNC(=S)N(CCC(N)=O)N(C)C [I-18] | 18,6 | 2900 | 127 mg/kg | 160,5 mg/kg | 153 mg/kg | 168 mg/kg | – | – | –
CN(C)N(CCC(N)=O)C(=S)Nc1ccccc1 [I-19, 3-(2,2-dimethyl-1-phenylthiocarbamoylhydrazino)propionamide] | 11,2 | 1750 | 98,3 mg/kg | 112,0 mg/kg | 110,5 mg/kg | 130,0 mg/kg | – | – | –
CC(CN(C(=S)Nc1ccccc1)N(C)C)C(N)=O (centres unmarked) [I-20, 3-(2,2-dimethyl-1-phenylthiocarbamoylhydrazino)2-methylpropionamide] | 8,6 | 1340 | 102 mg/kg | 123 mg/kg | 106,4 mg/kg | 118,6 mg/kg | – | – | –
